From patent US7476687B2, “Substituted furo[2,3-g]indazoles for the treatment of glaucoma” (Alcon, Inc., priority 2003, dated 2009)
Structures can show the parent of a compound that is named as a salt.

Legend:
5HT2A(rat) [1] = molecular target: T1, 5HT2A(rat) (Rattus norvegicus, UniProt P14842); test: 5-HT2 Receptor Binding Assay ([125I]DOI competition, cerebral cortex homogenates); parameters: Aliquots of post mortem rat or human cerebral cortex homogenates (400 μL) dispersed in 50 mM TrisHCl buffer; from tissue; host or cells: post mortem rat cerebral cortex homogenate; details: inhibition of [125I]DOI binding
T1 sequence (P14842 whole entry): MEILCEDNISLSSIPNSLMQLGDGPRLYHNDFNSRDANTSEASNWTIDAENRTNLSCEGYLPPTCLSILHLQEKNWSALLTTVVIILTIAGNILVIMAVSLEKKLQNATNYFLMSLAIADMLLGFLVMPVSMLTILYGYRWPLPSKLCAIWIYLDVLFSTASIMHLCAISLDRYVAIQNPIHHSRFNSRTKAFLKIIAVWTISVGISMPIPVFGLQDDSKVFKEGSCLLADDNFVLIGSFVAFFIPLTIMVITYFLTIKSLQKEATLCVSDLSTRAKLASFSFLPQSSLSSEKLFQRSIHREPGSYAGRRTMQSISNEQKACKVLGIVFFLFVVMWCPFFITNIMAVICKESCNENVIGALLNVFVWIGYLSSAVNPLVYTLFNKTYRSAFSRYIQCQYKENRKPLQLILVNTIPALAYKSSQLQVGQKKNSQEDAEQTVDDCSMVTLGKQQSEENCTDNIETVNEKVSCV
Description: 5-HT2 Receptor Binding Assay
Aliquots of post mortem rat or human cerebral cortex homogenates (400 μL) dispersed in 50 mM TrisHCl buffer (pH 7.4) are incubated with [^125I]DOI (80 pM final) in the absence or presence of methiothepin (10 μM final) to define total and non-specific binding, respectively, in a total volume of 0.5 mL. The assay mixture is incubated for 1 hour at 23° C. in polypropylene tubes and the assays terminated by rapid vacuum filtration over Whatman GF/B glass fiber filters previously soaked in 0.3% polyethyleneimine using ice-cold buffer. Test compounds (at different concentrations) are substituted for methiothepin. Filter-bound radioactivity is determined by scintillation spectrometry on a beta counter. The data are analyzed using a non-linear, iterative curve-fitting computer program [Trends Pharmacol. Sci., 16, 413 (1995)] to determine the compound affinity parameter. The concentration of the compound needed to inhibit the [^125I]DOI binding by 50% of the maximum is termed the IC50 or Ki value.

5HT2A(rat) [2] = molecular target: T1, 5HT2A(rat); test: 5HT2 Functional Assay: [Ca2+]i Mobilization (FLIPR, A7r5 cells); assay type: cell-based; parameters: endogenous in cells; host or cells: A7r5 rat vascular smooth muscle cells; details: for EC50: [Ca2+]i mobilization, rat vascular smooth muscle cells A7r5; for Emax: percentage of maximum 5-HT-induced response, A7r5 cells
Description: The receptor-mediated mobilization on intracellular calcium ([Ca^2+]i) was studied using the Fluorescence Imaging Plate Reader (FLIPR) instrument. Rat vascular smooth muscle cells, A7r5, were grown in a normal media of DMEM/10% FBS and 10 μg/mL gentamycin. Confluent cell monolayers were trypsinized, pelleted, and re-suspended in normal media. Cells were seeded in a 50 μL volume at a density of 20,000 cells/well in a black wall, 96-well tissue culture plate and grown for 2 days.
On the day of the experiment, one vial of FLIPR Calcium Assay Kit dye was re-suspended in 50 mL of a FLIPR buffer consisting of Hank's Balanced Salt Solution (HBSS), 20 mM HEPES, and 2.5 mM probenecid, pH 7.4. Cells were loaded with the calcium-sensitive dye by addition of an equal volume (50 μL) to each well of the 96-well plate and incubated with dye for 1 h at 23° C.
Compounds were diluted 1:50 in 20% DMSO/20% Ethanol. For “hit” screening, compounds were further diluted 1:10 in FLIPR buffer and tested at a final concentration of 10 μM.
The compound plate and cell plate were placed in the FLIPR instrument. At the beginning of an experimental run, a signal test was performed to check the basal fluorescence signal from the dye-loaded cells and the uniformity of the signal across the plate. The basal fluorescence was adjusted between 8000-12000 counts by modifying the exposure time, the camera F-stop, or the laser power. Instrument settings for a typical assay were the following: laser power 0.3-0.6 W, camera F-stop F/2, and exposure time 0.4 sec. An aliquot (25 μL) of the test compound was added to the existing 100 μL dye-loaded cells at a dispensing speed of 50 μL/sec. Fluorescence data were collected in real-time at 1.0 sec intervals for the first 60 secs and at 6.0 sec intervals for an additional 120 secs.

Structure (SMILES): C[C@H](N)Cn1ncc2ccc3oc(CO)cc3c21 [Example 2, [1-((S)-2-Aminopropyl)-1H-furo[2,3-g]indazol-7-yl]-methanol]
- IC50 (5HT2A(rat) [1]): 0.53 nM
- melting point: 110 to 112 °C
- EC50 (5HT2A(rat) [2]): 18 nM
- Emax (5HT2A(rat) [2]): 86%

Structure (SMILES): Cc1ccc(CNC(=O)c2cc3c(ccc4cnn(C[C@H](C)N)c43)o2)o1 (as salt: fumarate) [Example 14, 1-((S)-2-Aminopropyl)-1H-furo[2,3-g]indazole-7-carboxylic acid (5-methyl-furan-2-ylmethyl)amide]
- melting point: 118 to 120 °C

Structure (SMILES): Cc1noc(-c2cc3c(ccc4cnn(C[C@H](C)N)c43)o2)n1 (as salt: fumarate) [Example 15, (S)-1-Methyl-2-[7-(3-methyl-1,2,4-oxadiazol-5-yl)-furo[2,3-g]indazol-1-yl]-ethylamine]
- melting point: 187 to 189 °C

Structure (SMILES): C[C@H](N)Cn1ncc2ccc3oc(CNC(=O)c4cccnc4)cc3c21 [Example 17]
- IC50 (5HT2A(rat) [1]): 3 nM
- EC50 (5HT2A(rat) [2]): 22 nM
- Emax (5HT2A(rat) [2]): 95%

Structure (SMILES): C[C@H](N)Cn1ncc2ccc3oc(CN4CCN(c5ccccn5)CC4)cc3c21 [Example 20, (S)-1-Methyl-2-[7-(4-pyridin-2-yl-piperazin-1-ylmethyl)-furo[2,3-g]indazol-1-yl]-ethylamine]
- EC50 (5HT2A(rat) [2]): 141 nM
- Emax (5HT2A(rat) [2]): 81%

Structure (SMILES): C[C@H](N)Cn1ncc2ccc3oc(C(=O)NCCCN4CCCC4=O)cc3c21 [Example 13, 1-((S)-2-Aminopropyl)-1H-furo[2,3-g]indazole-7-carboxylic acid [3-(2-oxo-pyrrolidin-1-yl)-propyl]-amide]
- IC50 (5HT2A(rat) [1]): 2 nM
- EC50 (5HT2A(rat) [2]): 72 nM
- Emax (5HT2A(rat) [2]): 87%

Structure (SMILES): Cc1noc(-c2cc3c(ccc4cnn(C[C@H](C)N)c43)o2)n1 [Example 15, (S)-1-Methyl-2-[7-(3-methyl-1,2,4-oxadiazol-5-yl)-furo[2,3-g]indazol-1-yl]-ethylamine]
- IC50 (5HT2A(rat) [1]): 0.9 nM
- EC50 (5HT2A(rat) [2]): 283 nM
- Emax (5HT2A(rat) [2]): 101%

Structure (SMILES): CC(=O)NCCCNC(=O)c1cc2c(ccc3cnn(C[C@H](C)N)c32)o1 [Example 12, 1-((S)-2-Amino-propyl)-1H-furo[2,3-g]indazole-7-carboxylic acid (3-acetylaminopropyl)-amide]
- IC50 (5HT2A(rat) [1]): 1.4 nM
- EC50 (5HT2A(rat) [2]): 37 nM
- Emax (5HT2A(rat) [2]): 95%

Structure (SMILES): C[C@H](N)Cn1ncc2ccc3oc(C(=O)NCC(C)(C)CO)cc3c21 (as salt: fumarate) [Example 11, 1-((S)-2-Aminopropyl)-1H-furo[2,3-g]indazole-7-carboxylic acid (3-hydroxy-2,2-dimethyl-propyl)-amide]
- melting point: 103 °C

Structure (SMILES): C[C@H](N)Cn1ncc2ccc3oc(C(N)=O)cc3c21 (as salt: fumarate) [Example 3, 1-((S)-2-Aminopropyl)-1H-furo[2,3-g]indazole-7-carboxylic acid amide]
- melting point: 170 to 172 °C

Structure (SMILES): CC(=O)NCCCNC(=O)c1cc2c(ccc3cnn(C[C@H](C)N)c32)o1 (as salt: fumarate) [Example 12, 1-((S)-2-Amino-propyl)-1H-furo[2,3-g]indazole-7-carboxylic acid (3-acetylaminopropyl)-amide]
- melting point: 81 °C

Structure (SMILES): CC(O)CNC(=O)c1cc2c(ccc3cnn(C[C@H](C)N)c32)o1 (stereo partly drawn) [Example 9, 1-((S)-2-Aminopropyl)-1H-furo[2,3-g]indazole-7-carboxylic acid (2-hydroxypropyl)-amide]
- IC50 (5HT2A(rat) [1]): 1.5 nM
- EC50 (5HT2A(rat) [2]): 27 nM
- Emax (5HT2A(rat) [2]): 98%

Structure (SMILES): CCOC(=O)c1cc2c(ccc3cnn(C[C@H](C)N)c32)o1.O=C(O)/C=C/C(=O)O [Example 1, 1-((S)-2-Aminopropyl)-1H-furo[2,3-g]indazole-7-carboxylic acid ethyl ester fumarate]
- IC50 (5HT2A(rat) [1]): 0.21 nM
- melting point: 184 to 185 °C
- EC50 (5HT2A(rat) [2]): 63 nM
- Emax (5HT2A(rat) [2]): 101%

Structure (SMILES): CNC(=O)Cc1cc2c(ccc3cnn(C[C@H](C)N)c32)o1 [Example 16, 2-[1-((S)-2-Amino-propyl)-1H-furo[2,3-g]indazol-7-yl]-N-methyl-acetamide]
- IC50 (5HT2A(rat) [1]): 0.7 nM
- EC50 (5HT2A(rat) [2]): 28 nM
- Emax (5HT2A(rat) [2]): 97%

Structure (SMILES): C[C@H](N)Cn1ncc2ccc3oc(C(=O)NCC4(O)CC4)cc3c21 (as salt: fumarate) [Example 10, 1-((S)-2-Aminopropyl)-1H-furo[2,3-g]indazole-7-carboxylic acid (1-hydroxy-cyclopropylmethyl)-amide]
- melting point: 77 to 79 °C

Structure (SMILES): C[C@H](N)Cn1ncc2ccc3oc(C(=O)NCCO)cc3c21 [Example 5, 1-((S)-2-Aminopropyl)-1H-furo[2,3-g]indazole-7-carboxylic acid (2-hydroxyethyl)-amide fumarate]
- IC50 (5HT2A(rat) [1]): 3.5 nM
- EC50 (5HT2A(rat) [2]): 55 nM
- Emax (5HT2A(rat) [2]): 94%

Structure (SMILES): COCCNC(=O)c1cc2c(ccc3cnn(C[C@H](C)N)c32)o1 (as salt: fumarate) [Example 8, 1-((S)-2-Aminopropyl)-1H-furo[2,3-g]indazole-7-carboxylic acid (2-methoxyethyl)-amide]
- melting point: 75 to 76 °C

Structure (SMILES): COCCNC(=O)c1cc2c(ccc3cnn(C[C@H](C)N)c32)o1 [Example 8, 1-((S)-2-Aminopropyl)-1H-furo[2,3-g]indazole-7-carboxylic acid (2-methoxyethyl)-amide]
- IC50 (5HT2A(rat) [1]): 2.3 nM
- EC50 (5HT2A(rat) [2]): 54 nM
- Emax (5HT2A(rat) [2]): 94%

Structure (SMILES): CC(O)CNC(=O)c1cc2c(ccc3cnn(C[C@H](C)N)c32)o1 (stereo partly drawn) (as salt: fumarate) [Example 9, 1-((S)-2-Aminopropyl)-1H-furo[2,3-g]indazole-7-carboxylic acid (2-hydroxypropyl)-amide]
- melting point: 190 to 191 °C

Structure (SMILES): C[C@H](N)Cn1ncc2ccc3oc(C(=O)NCCN4CCOCC4)cc3c21 [Example 7, 1-((S)-2-Aminopropyl)-1H-furo[2,3-g]indazole-7-carboxylic acid (2-morpholin-4-yl-ethyl)-amide]
- IC50 (5HT2A(rat) [1]): 1.3 nM
- EC50 (5HT2A(rat) [2]): 109 nM
- Emax (5HT2A(rat) [2]): 89%

Structure (SMILES): C[C@H](N)Cn1ncc2ccc3oc(C(=O)NCC4(O)CC4)cc3c21 [Example 10, 1-((S)-2-Aminopropyl)-1H-furo[2,3-g]indazole-7-carboxylic acid (1-hydroxy-cyclopropylmethyl)-amide]
- IC50 (5HT2A(rat) [1]): 1.1 nM
- EC50 (5HT2A(rat) [2]): 15 nM
- Emax (5HT2A(rat) [2]): 94%

Structure (SMILES): C[C@H](N)Cn1ncc2ccc3oc(C(=O)NCCc4cnc[nH]4)cc3c21.O=C(O)/C=C/C(=O)O [Example 6, 1-((S)-2-Aminopropyl)-1H-furo[2,3-g]indazole-7-carboxylic acid [2-(3H-imidazol-4-yl)-ethyl]-amide fumarate]
- IC50 (5HT2A(rat) [1]): 0.66 nM
- melting point: 201 to 203 °C
- EC50 (5HT2A(rat) [2]): 57 nM
- Emax (5HT2A(rat) [2]): 95%

Structure (SMILES): CCNC(=O)NCc1cc2c(ccc3cnn(C[C@H](C)N)c32)o1 [Example 18, 1-[1-((S)-2-Aminopropyl)-1H-furo[2,3-g]indazol-7-ylmethyl]-3-ethylurea]
- IC50 (5HT2A(rat) [1]): 4.1 nM
- EC50 (5HT2A(rat) [2]): 23 nM
- Emax (5HT2A(rat) [2]): 87%

Structure (SMILES): C[C@H](N)Cn1ncc2ccc3oc(C(=O)NCCCN4CCCC4=O)cc3c21 (as salt: fumarate) [Example 13, 1-((S)-2-Aminopropyl)-1H-furo[2,3-g]indazole-7-carboxylic acid [3-(2-oxo-pyrrolidin-1-yl)-propyl]-amide]
- melting point: 82 °C

Structure (SMILES): Cc1ccc(CNC(=O)c2cc3c(ccc4cnn(C[C@H](C)N)c43)o2)o1 [Example 14, 1-((S)-2-Aminopropyl)-1H-furo[2,3-g]indazole-7-carboxylic acid (5-methyl-furan-2-ylmethyl)amide]
- IC50 (5HT2A(rat) [1]): 0.3 nM
- EC50 (5HT2A(rat) [2]): 181 nM
- Emax (5HT2A(rat) [2]): 94%

Structure (SMILES): CC(=O)Nc1ccc(S(=O)(=O)NCc2cc3c(ccc4cnn(C[C@H](C)N)c43)o2)cc1 [Example 19, N-(4-{[1-((S)-2-Aminopropyl)-1H-furo[2,3-g]indazol-7-ylmethyl]-sulfamoyl}-phenyl)-acetamide]
- IC50 (5HT2A(rat) [1]): 4.1 nM
- melting point: 80 to 85 °C
- EC50 (5HT2A(rat) [2]): 131 nM
- Emax (5HT2A(rat) [2]): 82%
